Key:
Format in all cases: in vivo
[1] = system: Tobacco cutworm (Spodoptera litura) larvae; assay: Test against tobacco cutworm (Spodoptera litura) larvae, leaf dip; details: active compound concentration 100 ppm; third instar larvae on dipped sweet potato leaves; after 7 days
Procedure: (§1) Unless described otherwise, the test solutions were prepared as follows:
(§2) The active compound, 1 part by weight of the active compound was admixed with the solvent in the above described amount which contains the emulsifying agent in the above described amount. The mixture was then diluted with water to specific concentration.
(§3) In order to prepare the test solution containing the active compound, 1 part by weight of the active compound was admixed with 3 parts by weight of the solvent dimethyl formamide which contains 1 part by weight of the emulsifying agent polyoxyethylene alkylphenyl ether. This mixture is then diluted with water to the specific concentration.
(§4) Solvent: dimethyl formamide, 3 parts by weight; emulsifying agent: polyoxyethylene alkylphenyl ether, 1 part by weight
Leaves of sweet potato were immersed in the test solution at the appropriate concentration, and the leaves were dried in air. The leaves were then placed in a petri dish having a diameter of 9 cm, and ten Spodoptera litura at third instar larvae were released therein. The petri dishes were placed in a temperature-controlled chamber at 25° C. After 2 days and 4 days more sweet potato leaves were added. After 7 days, the number of dead larvae was counted to calculate the insecticidal activity. An insecticidal activity of 100% means that all larvae were killed, whereas an insecticidal activity of 0% means that no larva was killed. In the current test, the results of two petri dishes for each treatment were averaged.

[2] = system: Cucurbit leaf beetle (Aulacophora femoralis); assay: Test against cucurbit leaf beetle (Aulacophora femoralis), leaf dip; details: active compound concentration 100 ppm; second instar larvae on dipped cucumber leaves; after 7 days
Procedure: as §1, §2, §3, §4
Leaves of cucumber were immersed in the test solution at the appropriate concentration, and the leaves were dried in air. The leaves were then put in a plastic cup containing sterilized black soil and five Aulacophora femoralis at second instar larvae were released in the cup. The cups were placed in a temperature-controlled chamber at 25° C. After 7 days, the number of dead larvae was counted, and thus the insecticidal activity was calculated. An insecticidal activity of 100% means that all larvae were killed, whereas an insecticidal activity of 0% means that no larva was killed.

Boophilus microplus = Boophilus microplus (dip); details: application rate 100 ppm; adult engorged female ticks dipped one minute; after 7 days
Procedure: Solvent: dimethylsulfoxid
To produce a suitable preparation of active compound, 10 mg of active compound are dissolved in 0.5 ml solvent, and the concentrate is diluted with water to the desired concentration. Eight to ten adult engorged female Boophilus microplus ticks are placed in perforated plastic beakers and immersed in aqueous compound solution for one minute. Ticks are transferred to a filter paper in a plastic tray. Egg deposition of fertile eggs is monitored after. After 7 days mortality in % is determined. 100% means that all the ticks have been killed; 0% means that none of the ticks have been killed.

Ctenocephalides felis = assay: Ctenocephalides felis-test (CTECFE); details: application rate 100 ppm in cattle blood, adult unfed fleas, after 2 days
Procedure: (§5) Solvent: dimethyl sulfoxide
To produce a suitable preparation of active compound, 10 mg of active compound are dissolved in 0.5 ml solvent, and the concentrate is diluted with cattle blood to the desired concentration. Approximately 20 adult unfed (Ctenocephalides felis) are placed in flea chambers. The blood chamber, sealed with parafilm on the bottom, are filled with cattle blood supplied with compound solution and placed on top of the flea chamber, so that the fleas are able to suck the blood. The blood chamber is heated to 37° C. whereas the flea chamber is kept at room temperature. After 2 days mortality in % is determined. 100% means that all the fleas have been killed; 0% means that none of the fleas have been killed.

[3] = system: Two-spotted spider mite (Tetranychus urticae); assay: Test against two-spotted spider mite (Tetranychus urticae), spray; details: active compound concentration 100 ppm; adult mites on kidney bean, sprayed; after 7 days
Procedure: as §1, §2, §3, §4
50 to 100 adult mites of Tetranychus urticae were inoculated to leaves of kidney bean at two-leaf stage planted in a pot of 6 cm in diameter. After one day, test solution at the appropriate concentration was sprayed thereon in a sufficient amount using a spray gun. After the spraying, the plant pot was placed inside a greenhouse, and after 7 days, the acaricidal activity was calculated. An acaricidal activity of 100% means that all mites were killed, whereas an acaricidal activity of 0% means that no mite was killed.

[4] = system: Lucilia cuprina 1st instar larvae; assay: Lucilia cuprina-test (LUCICU 48 h); details: application rate 100 ppm, 1st instar larvae on minced horse meat, after 2 days, read-out: activity (percentage of larval mortality)
Procedure: Species: Lucilia cuprina 1st instar larvae (age 24 hrs)
as §5
10 mg active compound are dissolve in 0.5 ml Dimethylsulfoxid. Serial dilutions are made to obtain the desired rates. Approximately 20 Lucilia cuprina 1st instar larvae are transferred into a test tube containing 1 cm^3 of minced horse meat and 0.5 ml aqueous dilution of test compound. After 2 days percentage of larval mortality are recorded. 100% efficacy=all larvae are killed, […].

Musca domestica = assay: Musca domestica-test; details: application rate 100 ppm, adults, sugar/compound soaked sponge, after 2 days
Procedure: as §5
To produce a suitable preparation of active compound, 10 mg of active compound are dissolved in 0.5 ml solvent, and the concentrate is diluted with water to the desired concentration. Prior to the assay, a piece of kitchen sponge is soaked with a mixture of sugar and compound solution and placed into a container. 10 adults (Musca domestica) are placed into the container and closed with a perforated lid. After 2 days mortality in % is determined. 100% means that all the flies have been killed; 0% means that none of the flies have been killed.

Row | Structure (SMILES) | insecticidal activity [1] [%] | insecticidal activity [2] [%] | activity (mortality in %) (Boophilus microplus) [%] | activity (mortality in %) (Ctenocephalides felis) [%] | acaricidal activity [3] [%] | mortality at 100 ppm [4] [%] | mortality at 100 ppm (Ctenocephalides felis; Ctenocephalides felis, 48 h) [%] | mortality at 100 ppm (Musca domestica; Musca domestica, 48 h) [%] | activity (mortality in %) (Musca domestica) [%]
1 | CC(=O)NCc1ccc(N2CC(c3cc(Cl)cc(Cl)c3)(C(F)(F)F)OC2=O)cc1C(F)(F)F (centres unmarked) [Compound 1-2] | 100 | 100 | 80 | 95 |  |  |  |  | 
2 | CCC(=O)NCc1ccc(N2CC(c3cc(Cl)cc(Cl)c3)(C(F)(F)F)OC2=O)cc1C(F)(F)F (centres unmarked) [Compound 1-3, N-{4-[5-(3,5-dichlorophenyl)-2-oxo-5-(trifluoromethyl)-1,3-oxazolin-3-yl]-2-(trifluoromethyl)benzyl}propane amide] | 100 | 100 |  |  | 100 | 100 | 95 | 100 | 
3 | O=C(CC(F)(F)F)NCc1ccc(N2CC(c3cc(Cl)cc(Cl)c3)(C(F)(F)F)OC2=O)cc1C(F)(F)F (centres unmarked) [Compound 1-7] | 100 | 100 |  | 95 | 100 |  |  |  | 
4 | CC(=O)NCc1ccc(N2CC(c3cc(Cl)c(Cl)c(Cl)c3)(C(F)(F)F)OC2=O)cc1C(F)(F)F (centres unmarked) [Compound 1-16] | 100 | 100 | 80 |  | 100 |  |  |  | 90
5 | CCC(=O)NCc1ccc(N2CC(c3cc(Cl)c(Cl)c(Cl)c3)(C(F)(F)F)OC2=O)cc1C(F)(F)F (centres unmarked) [Compound 1-17] | 100 | 100 | 100 |  | 100 |  |  |  | 90
6 | CCC(=O)NCc1ccc(N2CC(c3cc(Cl)c(Cl)c(Cl)c3)(C(F)(F)F)OC2=O)cc1 (centres unmarked) [Compound 1-59] | 100 | 100 |  | 95 |  |  |  |  | 
7 | CCC(=O)NCc1ccc(N2CC(c3cccc(C(F)(F)F)c3)(C(F)(F)F)OC2=O)cc1C(F)(F)F (centres unmarked) [Compound 1-73] | 100 | 100 |  |  |  |  |  |  | 80
8 | O=C(NCc1ccc(N2CC(c3cc(C(F)(F)F)cc(C(F)(F)F)c3)(C(F)(F)F)OC2=O)cc1Cl)C1CC1 (centres unmarked) [Compound 1-145] | 100 | 100 |  | 95 | 100 |  |  |  | 80
9 | O=C(CC(F)(F)F)NCc1ccc(N2CC(c3cc(C(F)(F)F)cc(C(F)(F)F)c3)(C(F)(F)F)OC2=O)cc1Cl (centres unmarked) [Compound 1-147] | 100 | 100 |  | 95 | 100 |  |  |  | 
10 | Cc1cc(N2CC(c3cc(C(F)(F)F)cc(C(F)(F)F)c3)(C(F)(F)F)OC2=O)ccc1CNC(=O)C1CC1 (centres unmarked) [Compound 1-159] | 100 | 100 |  | 95 |  |  |  |  | 90
11 | Cc1cc(N2CC(c3cc(C(F)(F)F)cc(C(F)(F)F)c3)(C(F)(F)F)OC2=O)ccc1CNC(=O)CC(F)(F)F (centres unmarked) [Compound 1-161] | 100 | 100 |  | 80 |  |  |  |  | 
12 | Cc1cc(N2CC(c3cc(C(F)(F)F)cc(C(F)(F)F)c3)(C(F)(F)F)OC2=O)ccc1CNC(=O)C[S+](C)[O-] (centres unmarked) [Compound 1-163] |  |  |  | 80 |  |  |  |  | 
13 | O=C(CC1CC1)NC1CCc2cc(N3CC(c4cc(Cl)c(Cl)c(Cl)c4)(C(F)(F)F)OC3=O)ccc21 (centres unmarked) [Compound 4-34] | 100 | 100 |  |  | 100 |  |  |  | 
14 | O=C(CC(F)(F)F)NC1CCc2cc(N3CC(c4cc(Cl)c(Cl)c(Cl)c4)(C(F)(F)F)OC3=O)ccc21 (centres unmarked) [Compound 4-35] | 100 | 100 |  |  | 100 |  |  |  | 

— patent US20110152332A1, “Pesticidal Heterocyclic Compounds” (Bayer CropScience AG, priority 2009, published 2011)
